Measured values reported in PubChem BioAssay AID248 (DTP/NCI, 2004).
Where “and” joins values, the source holds several entries; their conditions need not be identical. Equal values may be shown once. Toxic doses and inconclusive results are not listed. Rule as the data show it: active = T/C of 150% or more; inactive = T/C below 125%.

System: L1210 leukemia ip in BDF1 mice, survival T/C
Assay: NCI In Vivo Anticancer Drug Screen. Data for tumor model L1210 Leukemia (intraperitoneal) in B6D2F1 (BDF1) mice
Details: endpoint: mean survival time, higher = longer survival
How it was run: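 Read-out is survival time, reported as the treated-group measurement over the vehicle-control measurement.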

[1] = dose: 100.0 mg/kg/injection, schedule: Q01DX009 (ip), vehicle: Klucel (hydroxypropylcellulose) (HPC)
[2] = dose: 100.0 mg/kg/injection, schedule: Q04DX003 (ip), vehicle: Klucel (hydroxypropylcellulose) (HPC)
[3] = dose: 200.0 mg/kg/injection, schedule: Q01DX009 (ip), vehicle: Klucel (hydroxypropylcellulose) (HPC)
[4] = dose: 200.0 mg/kg/injection, schedule: Q04DX003 (ip), vehicle: Klucel (hydroxypropylcellulose) (HPC)
[5] = dose: 400.0 mg/kg/injection, schedule: Q01DX009 (ip), vehicle: Klucel (hydroxypropylcellulose) (HPC)
[6] = dose: 50.0 mg/kg/injection, schedule: Q01DX001 (ip), vehicle: carboxymethylcellulose (CMC)
[7] = dose: 100.0 mg/kg/injection, schedule: Q01DX001 (ip), vehicle: carboxymethylcellulose (CMC)
[8] = dose: 200.0 mg/kg/injection, schedule: Q01DX001 (ip), vehicle: carboxymethylcellulose (CMC)
[9] = dose: 400.0 mg/kg/injection, schedule: Q01DX001 (ip), vehicle: carboxymethylcellulose (CMC)
[10] = dose: 100.0 mg/kg/injection, schedule: Q01DX001 (ip), vehicle: saline with Tween-80
[11] = dose: 200.0 mg/kg/injection, schedule: Q01DX001 (ip), vehicle: saline with Tween-80
[12] = dose: 100.0 mg/kg/injection, schedule: Q01DX001 (ip), vehicle: saline
[13] = dose: 100.0 mg/kg/injection, schedule: Q04DX003 (ip), vehicle: saline
[14] = dose: 200.0 mg/kg/injection, schedule: Q01DX001 (ip), vehicle: saline
[15] = dose: 200.0 mg/kg/injection, schedule: Q04DX003 (ip), vehicle: saline
[16] = dose: 400.0 mg/kg/injection, schedule: Q01DX001 (ip), vehicle: saline
[17] = dose: 400.0 mg/kg/injection, schedule: Q04DX003 (ip), vehicle: saline

Measured: T/C

O=C(Nc1cc(C(F)(F)F)ccc1Cl)SCCSC(=O)Nc1cc(C(F)(F)F)ccc1Cl
inactive: [1] 87 % of control | [2] 102 % of control | [3] 103 % of control | [4] 100 % of control | [5] 93 % of control | dose: 400.0 mg/kg/injection, schedule: Q04DX003 (ip), vehicle: Klucel (hydroxypropylcellulose) (HPC) 97 % of control

O=[N+]([O-])c1ccc(C=Nc2ccccc2)s1
inactive: [2] 98 % of control | [4] 93 % of control

COC(=O)C1C(C)(C(=O)OC)N=NC1(c1ccccc1)c1ccccc1 (centres undefined)
inactive: dose: 100.0 mg/kg/injection, schedule: Q01DX001 (ip), vehicle: steriod suspending solution 101 % of control | dose: 200.0 mg/kg/injection, schedule: Q01DX001 (ip), vehicle: steriod suspending solution 104 % of control | dose: 400.0 mg/kg/injection, schedule: Q01DX001 (ip), vehicle: steriod suspending solution 98 % of control

O=C1c2ccccc2C(=O)N1CCS(=O)(=O)Cl
inactive: dose: 25.0 mg/kg/injection, schedule: Q01DX001 (ip), vehicle: carboxymethylcellulose (CMC) 104 % of control | dose: 25.0 mg/kg/injection, schedule: Q01DX009 (ip), vehicle: carboxymethylcellulose (CMC) 92 % of control and 96 % of control | [6] 100 % of control | dose: 50.0 mg/kg/injection, schedule: Q01DX009 (ip), vehicle: carboxymethylcellulose (CMC) 92 % of control and 102 % of control | dose: 50.0 mg/kg/injection, schedule: Q04DX003 (ip), vehicle: carboxymethylcellulose (CMC) 97 % of control and 98 % of control | [7] 92 % of control and 99 % of control | dose: 100.0 mg/kg/injection, schedule: Q01DX009 (ip), vehicle: carboxymethylcellulose (CMC) 92 % of control and 95 % of control and 89 % of control | dose: 100.0 mg/kg/injection, schedule: Q04DX002 (ip), vehicle: carboxymethylcellulose (CMC) 93 % of control and 97 % of control | dose: 100.0 mg/kg/injection, schedule: Q04DX003 (ip), vehicle: carboxymethylcellulose (CMC) 100 % of control and 113 % of control | [8] 97 % of control | dose: 200.0 mg/kg/injection, schedule: Q04DX002 (ip), vehicle: carboxymethylcellulose (CMC) 97 % of control | dose: 200.0 mg/kg/injection, schedule: Q04DX003 (ip), vehicle: carboxymethylcellulose (CMC) 100 % of control and 102 % of control | [9] 92 % of control | dose: 400.0 mg/kg/injection, schedule: Q01DX009 (ip), vehicle: carboxymethylcellulose (CMC) 86 % of control | dose: 400.0 mg/kg/injection, schedule: Q04DX002 (ip), vehicle: carboxymethylcellulose (CMC) 97 % of control and 100 % of control

O=C(/C(=C/c1ccc2c(c1)OCO2)c1ccccc1)c1ccc(OCCN2CCCC2)cc1
inactive: [7] 95 % of control | [8] 106 % of control | [9] 95 % of control

Nc1nc(SCC(=O)c2ccc(Cl)cc2)c2c(n1)SCC(c1ccc(Cl)cc1)=N2
inactive: [10] 97 % of control | [11] 101 % of control | dose: 400.0 mg/kg/injection, schedule: Q01DX001 (ip), vehicle: saline with Tween-80 92 % of control

O=C(N/N=C/c1ccc(Cl)cc1Cl)C(O)C(O)C(O)C(O)CO (centres undefined)
inactive: dose: 12.5 mg/kg/injection, schedule: Q04DX003 (ip), vehicle: saline with Tween-80 105 % of control | dose: 25.0 mg/kg/injection, schedule: Q04DX003 (ip), vehicle: saline with Tween-80 101 % of control | dose: 50.0 mg/kg/injection, schedule: Q01DX001 (ip), vehicle: saline with Tween-80 91 % of control | dose: 50.0 mg/kg/injection, schedule: Q01DX009 (ip), vehicle: saline with Tween-80 90 % of control | dose: 50.0 mg/kg/injection, schedule: Q04DX003 (ip), vehicle: saline with Tween-80 96 % of control and 92 % of control | [10] 104 % of control | dose: 100.0 mg/kg/injection, schedule: Q04DX002 (ip), vehicle: saline with Tween-80 92 % of control | [11] 90 % of control | dose: 200.0 mg/kg/injection, schedule: Q04DX002 (ip), vehicle: saline with Tween-80 86 % of control | dose: 400.0 mg/kg/injection, schedule: Q04DX002 (ip), vehicle: saline with Tween-80 97 % of control

O=S(=O)(CCl)Nc1ccncc1
inactive: dose: 100.0 mg/kg/injection, schedule: Q04DX013 (ip), vehicle: carboxymethylcellulose (CMC) 101 % of control | dose: 200.0 mg/kg/injection, schedule: Q04DX013 (ip), vehicle: carboxymethylcellulose (CMC) 100 % of control | dose: 400.0 mg/kg/injection, schedule: Q04DX013 (ip), vehicle: carboxymethylcellulose (CMC) 100 % of control

COC(=O)C1CC(=O)C(C(=O)OC)CC1=O (centres undefined)
inactive: [1] 89 % of control | [3] 92 % of control | [5] 89 % of control

CC1COCC(C)N1C(=O)c1cccnc1 (centres undefined)
inactive: [12] 99 % of control | dose: 100.0 mg/kg/injection, schedule: Q01DX009 (ip), vehicle: saline 101 % of control and 103 % of control | dose: 100.0 mg/kg/injection, schedule: Q04DX002 (ip), vehicle: saline 96 % of control and 100 % of control | [13] 100 % of control | [14] 99 % of control | dose: 200.0 mg/kg/injection, schedule: Q01DX009 (ip), vehicle: saline 113 % of control and 114 % of control | dose: 200.0 mg/kg/injection, schedule: Q04DX002 (ip), vehicle: saline 107 % of control and 110 % of control | [15] 105 % of control | [16] 101 % of control | dose: 400.0 mg/kg/injection, schedule: Q01DX009 (ip), vehicle: saline 103 % of control | dose: 400.0 mg/kg/injection, schedule: Q04DX002 (ip), vehicle: saline 105 % of control and 110 % of control | [17] 105 % of control

NCCC1CCCCN1 (centres undefined)
inactive: dose: 100.0 mg/kg/injection, schedule: Q04DX003 (ip), vehicle: acetone 108 % of control | dose: 150.0 mg/kg/injection, schedule: Q01DX009 (ip), vehicle: saline 117 % of control | dose: 225.0 mg/kg/injection, schedule: Q01DX009 (ip), vehicle: saline 101 % of control | dose: 335.0 mg/kg/injection, schedule: Q01DX009 (ip), vehicle: saline 110 % of control

CCCc1nc(N)[nH]c(=O)c1CCCCc1ccccc1
inactive: [13] 96 % of control | [15] 110 % of control | [17] 100 % of control

N/C(=N/N=C/c1ccccc1)N/N=C\c1ccccc1
inactive: dose: 15.0 mg/kg/injection, schedule: Q01DX Z (oral), vehicle: saline 95 % of control | dose: 30.0 mg/kg/injection, schedule: Q01DX Z (oral), vehicle: saline 95 % of control | dose: 60.0 mg/kg/injection, schedule: Q01DX Z (oral), vehicle: saline 91 % of control | dose: 120.0 mg/kg/injection, schedule: Q01DX Z (oral), vehicle: saline 95 % of control

CCN(CC)c1ccc(/C=N\NC(=O)CCCC(=O)N/N=C/c2ccc(N(CC)CC)cc2)cc1
inactive: dose: 50.0 mg/kg/injection, schedule: Q01DX001 (ip), vehicle: saline 102 % of control | [12] 100 % of control | [14] 96 % of control | [16] 100 % of control

NS(=O)(=O)c1ccc(CNC(=O)c2ccc(C(=O)NCc3ccc(S(N)(=O)=O)cc3)cc2)cc1
inactive: [12] 111 % of control | [14] 103 % of control | [16] 103 % of control

CC(C)(CCC(=O)O)CCC(=O)O
inactive: [6] 100 % of control | [7] 111 % of control | [8] 100 % of control | [9] 94 % of control

Cc1ccc(/C(=N\N=C(N)N)c2ccccc2)cc1
inactive: dose: 15.0 mg/kg/injection, schedule: Q01DX Z (ip), vehicle: saline 108 % of control | dose: 30.0 mg/kg/injection, schedule: Q01DX Z (ip), vehicle: saline 110 % of control | dose: 30.0 mg/kg/injection, schedule: Q01DX Z (oral), vehicle: other 105 % of control | dose: 60.0 mg/kg/injection, schedule: Q01DX Z (ip), vehicle: saline 109 % of control | dose: 60.0 mg/kg/injection, schedule: Q01DX Z (oral), vehicle: other 95 % of control

CNc1cn(C2OC(CO)C(O)C2O)c(=O)[nH]c1=O (centres undefined)
inactive: dose: 100.0 mg/kg/injection, schedule: Q01DX005 (ip), vehicle: saline 96 % of control | dose: 200.0 mg/kg/injection, schedule: Q01DX005 (ip), vehicle: saline 96 % of control
